How the values were obtained:
[1] = Caco-2 Papp determination; format: in vitro ADME, human; settings: for Papp at 2 h, 1 μM: human, Caco-2, pH 7.4
[2] = target: T1, β2 (h) (Homo sapiens, UniProt P07550); assay: CEREP binding panel; settings: agonist radioligand, read-out: % Inhibition of Control Specific Binding
T1 construct: purchased Millipore KinaseProfiler (kinases); Cerep (receptors and ion channels)

[3] = test system: GABA (non-selective); assay: CEREP binding panel; settings: 10 μM, agonist radioligand
[4] = target: T2, 5-HT3 (h) (Homo sapiens, UniProt P46098); assay: CEREP binding panel; settings: antagonist radioligand, read-out: % Inhibition of Control Specific Binding
T2 construct: purchased Millipore KinaseProfiler (kinases); Cerep (receptors and ion channels)

[5] = target: T3, AURKA (Homo sapiens, UniProt O14965); assay: Millipore kinase panel; format: biochemical; settings: read-out: % Control
T3 construct: purchased Millipore KinaseProfiler (kinases); Cerep (receptors and ion channels)

[6] = target: T4, CDK5/P35 (Homo sapiens, UniProt Q00535); assay: Millipore kinase panel; format: biochemical; settings: read-out: % Control
T4 construct: purchased Millipore KinaseProfiler (kinases); Cerep (receptors and ion channels)

[7] = target: T5, CDK6/CYCLIND3 (Homo sapiens, UniProt Q00534); assay: Millipore kinase panel; format: biochemical; settings: read-out: % Control
T5 construct: purchased Millipore KinaseProfiler (kinases); Cerep (receptors and ion channels)

[8] = target: T6, FLT3 (Homo sapiens, UniProt P36888); assay: Millipore kinase panel; format: biochemical; settings: read-out: % Control
T6 construct: purchased Millipore KinaseProfiler (kinases); Cerep (receptors and ion channels)

[9] = target: T7, FLT3(D835Y) (Homo sapiens, UniProt P36888, D835Y); assay: Millipore kinase panel; format: biochemical; settings: read-out: % Control
T7 construct: purchased Millipore KinaseProfiler (kinases); Cerep (receptors and ion channels)

[10] = target: T8, IRAK1 (Homo sapiens, UniProt P51617); assay: Millipore kinase panel; format: biochemical; settings: read-out: % Control
T8 construct: purchased Millipore KinaseProfiler (kinases); Cerep (receptors and ion channels)

[11] = target: T9, CKIT (Homo sapiens, UniProt P10721); assay: Millipore kinase panel; format: biochemical; settings: read-out: % Control
T9 construct: purchased Millipore KinaseProfiler (kinases); Cerep (receptors and ion channels)

[12] = target: T10, LCK (Homo sapiens, UniProt P06239); assay: Millipore kinase panel; format: biochemical; settings: for remaining activity at 1 µM: read-out: % Control
T10 construct: purchased Millipore

[13] = target: T11, MINK (Homo sapiens, UniProt Q8N4C8); assay: Millipore kinase panel; format: biochemical; settings: read-out: % Control
T11 construct: purchased Millipore KinaseProfiler (kinases); Cerep (receptors and ion channels)

[14] = target: T12, NLK (Homo sapiens, UniProt Q9UBE8); assay: Millipore kinase panel; format: biochemical; settings: read-out: % Control
T12 construct: purchased Millipore KinaseProfiler (kinases); Cerep (receptors and ion channels)

[15] = target: T13, PAK5 (Homo sapiens, UniProt Q9P286); assay: Millipore kinase panel; format: biochemical; settings: read-out: % Control
T13 construct: purchased Millipore KinaseProfiler (kinases); Cerep (receptors and ion channels)

[16] = target: T14, PDK1 (Homo sapiens, UniProt O15530); assay: Millipore kinase panel; format: biochemical; settings: read-out: % Control
T14 construct: purchased Millipore KinaseProfiler (kinases); Cerep (receptors and ion channels)

[17] = target: T15, PI3K GAMMA (Homo sapiens, UniProt P48736); assay: Millipore kinase panel; format: biochemical; settings: read-out: % Control
T15 construct: purchased Millipore KinaseProfiler (kinases); Cerep (receptors and ion channels)

[18] = target: T16, PKCEPSILON (Homo sapiens, UniProt Q02156); assay: Millipore kinase panel; format: biochemical; settings: read-out: % Control
T16 construct: purchased Millipore KinaseProfiler (kinases); Cerep (receptors and ion channels)

[19] = target: T17, ROS (Homo sapiens, UniProt P08922); assay: Millipore kinase panel; format: biochemical; settings: read-out: % Control
T17 construct: purchased Millipore KinaseProfiler (kinases); Cerep (receptors and ion channels)

[20] = target: T18, SRC (Homo sapiens, UniProt P12931); assay: Millipore kinase panel; format: biochemical; settings: read-out: % Control
T18 construct: purchased Millipore KinaseProfiler (kinases); Cerep (receptors and ion channels)

[21] = target: T19, TBK1 (Homo sapiens, UniProt Q9UHD2); assay: Millipore kinase panel; format: biochemical; settings: read-out: % Control
T19 construct: purchased Millipore KinaseProfiler (kinases); Cerep (receptors and ion channels)

[22] = target: T20, ZAP-70 (Homo sapiens, UniProt P43403); assay: Millipore kinase panel; format: biochemical; settings: read-out: % Control
T20 construct: purchased Millipore KinaseProfiler (kinases); Cerep (receptors and ion channels)

[23] = target: T21, CKIT(V560G) (Homo sapiens, UniProt P10721, V560G); assay: Millipore kinase panel; format: biochemical; settings: read-out: % Control
T21 construct: purchased Millipore KinaseProfiler (kinases); Cerep (receptors and ion channels)

[24] = target: T22, EGFR(T790M) (Homo sapiens, UniProt P00533, T790M); assay: Millipore kinase panel; format: biochemical; settings: read-out: % Control
T22 construct: purchased Millipore KinaseProfiler (kinases); Cerep (receptors and ion channels)

[25] = target: T23, EGFR(T790M,L858R) (Homo sapiens, UniProt P00533, L858R/T790M); assay: Millipore kinase panel; format: biochemical; settings: read-out: % Control
T23 construct: purchased Millipore KinaseProfiler (kinases); Cerep (receptors and ion channels)

[26] = target: T24, SRC(1-530) (Homo sapiens, UniProt P12931); assay: Millipore kinase panel; format: biochemical; settings: read-out: % Control
T24 construct: purchased Millipore KinaseProfiler (kinases); Cerep (receptors and ion channels)

[27] = target: T25, SRC(T341M) (Homo sapiens, UniProt P12931, T341M); assay: Millipore kinase panel; format: biochemical; settings: read-out: % Control
T25 construct: purchased Millipore KinaseProfiler (kinases); Cerep (receptors and ion channels)

[28] = target: T26, ABL (M351T) (Homo sapiens, UniProt P00519, M351T); assay: Millipore kinase panel; format: biochemical; settings: read-out: % Control
T26 construct: purchased Millipore KinaseProfiler (kinases); Cerep (receptors and ion channels)

[29] = target: T27, CLK2 (Homo sapiens, UniProt P49760); assay: Millipore kinase panel; format: biochemical; settings: read-out: % Control
T27 construct: purchased Millipore KinaseProfiler (kinases); Cerep (receptors and ion channels)

[30] = target: T28, RET (V804L) (Homo sapiens, UniProt P07949, V804L); assay: Millipore kinase panel; format: biochemical; settings: read-out: % Control
T28 construct: purchased Millipore KinaseProfiler (kinases); Cerep (receptors and ion channels)

[31] = target: T29, TIE2(R849W) (Homo sapiens, UniProt Q02763, R849W); assay: Millipore kinase panel; format: biochemical; settings: read-out: % Control
T29 construct: purchased Millipore KinaseProfiler (kinases); Cerep (receptors and ion channels)

[32] = target: T30, IR, ACTIVATED (Homo sapiens, UniProt P06213); assay: Millipore kinase panel; format: biochemical; settings: read-out: % Control
T30 construct: purchased Millipore KinaseProfiler (kinases); Cerep (receptors and ion channels)

[33] = test system: RKO-F1522 cells; assay: EF1-α promoter firefly luciferase control reporter; settings: Homo sapiens, read-out: IC50, firefly luciferase reporter downstream of the EF1-α promoter
[34] = Clint determination; format: in vitro ADME; settings: rat, microsomes, pH 7.4, rat microsomes, read-out: Clint (μL/min/mg) Rat
[35] = In vitro reactive metabolite assay; format: in vitro ADME; settings: data not shown
[36] = target: T31, ARG (Homo sapiens, UniProt P42684); assay: Millipore kinase panel; format: biochemical; settings: ATP at Km, read-out: % Control
T31 construct: purchased Millipore KinaseProfiler (kinases); Cerep (receptors and ion channels)

[37] = target: T32, LYN (Homo sapiens, UniProt P07948); assay: Millipore kinase panel; format: biochemical; settings: ATP at Km, read-out: % Control
T32 construct: purchased Millipore KinaseProfiler (kinases); Cerep (receptors and ion channels)

[38] = target: T33, MAPK2 (Homo sapiens, UniProt P28482); assay: Millipore kinase panel; format: biochemical; settings: ATP at Km, read-out: % Control
T33 construct: purchased Millipore KinaseProfiler (kinases); Cerep (receptors and ion channels)

T10 sequence (P06239 whole entry): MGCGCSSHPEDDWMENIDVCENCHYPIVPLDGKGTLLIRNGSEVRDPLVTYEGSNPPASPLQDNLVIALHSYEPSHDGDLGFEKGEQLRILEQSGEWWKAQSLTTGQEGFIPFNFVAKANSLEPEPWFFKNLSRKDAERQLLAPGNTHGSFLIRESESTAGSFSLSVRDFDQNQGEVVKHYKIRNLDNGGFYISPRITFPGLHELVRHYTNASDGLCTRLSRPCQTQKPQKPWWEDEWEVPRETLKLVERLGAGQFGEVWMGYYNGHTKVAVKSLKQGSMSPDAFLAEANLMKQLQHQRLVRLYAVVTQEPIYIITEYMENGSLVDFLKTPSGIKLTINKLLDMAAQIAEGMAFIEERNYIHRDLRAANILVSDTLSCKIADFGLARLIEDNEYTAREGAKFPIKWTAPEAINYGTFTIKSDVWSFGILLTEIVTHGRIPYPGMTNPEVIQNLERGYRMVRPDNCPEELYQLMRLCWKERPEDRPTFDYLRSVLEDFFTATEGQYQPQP
T30 sequence (P06213 28-1382): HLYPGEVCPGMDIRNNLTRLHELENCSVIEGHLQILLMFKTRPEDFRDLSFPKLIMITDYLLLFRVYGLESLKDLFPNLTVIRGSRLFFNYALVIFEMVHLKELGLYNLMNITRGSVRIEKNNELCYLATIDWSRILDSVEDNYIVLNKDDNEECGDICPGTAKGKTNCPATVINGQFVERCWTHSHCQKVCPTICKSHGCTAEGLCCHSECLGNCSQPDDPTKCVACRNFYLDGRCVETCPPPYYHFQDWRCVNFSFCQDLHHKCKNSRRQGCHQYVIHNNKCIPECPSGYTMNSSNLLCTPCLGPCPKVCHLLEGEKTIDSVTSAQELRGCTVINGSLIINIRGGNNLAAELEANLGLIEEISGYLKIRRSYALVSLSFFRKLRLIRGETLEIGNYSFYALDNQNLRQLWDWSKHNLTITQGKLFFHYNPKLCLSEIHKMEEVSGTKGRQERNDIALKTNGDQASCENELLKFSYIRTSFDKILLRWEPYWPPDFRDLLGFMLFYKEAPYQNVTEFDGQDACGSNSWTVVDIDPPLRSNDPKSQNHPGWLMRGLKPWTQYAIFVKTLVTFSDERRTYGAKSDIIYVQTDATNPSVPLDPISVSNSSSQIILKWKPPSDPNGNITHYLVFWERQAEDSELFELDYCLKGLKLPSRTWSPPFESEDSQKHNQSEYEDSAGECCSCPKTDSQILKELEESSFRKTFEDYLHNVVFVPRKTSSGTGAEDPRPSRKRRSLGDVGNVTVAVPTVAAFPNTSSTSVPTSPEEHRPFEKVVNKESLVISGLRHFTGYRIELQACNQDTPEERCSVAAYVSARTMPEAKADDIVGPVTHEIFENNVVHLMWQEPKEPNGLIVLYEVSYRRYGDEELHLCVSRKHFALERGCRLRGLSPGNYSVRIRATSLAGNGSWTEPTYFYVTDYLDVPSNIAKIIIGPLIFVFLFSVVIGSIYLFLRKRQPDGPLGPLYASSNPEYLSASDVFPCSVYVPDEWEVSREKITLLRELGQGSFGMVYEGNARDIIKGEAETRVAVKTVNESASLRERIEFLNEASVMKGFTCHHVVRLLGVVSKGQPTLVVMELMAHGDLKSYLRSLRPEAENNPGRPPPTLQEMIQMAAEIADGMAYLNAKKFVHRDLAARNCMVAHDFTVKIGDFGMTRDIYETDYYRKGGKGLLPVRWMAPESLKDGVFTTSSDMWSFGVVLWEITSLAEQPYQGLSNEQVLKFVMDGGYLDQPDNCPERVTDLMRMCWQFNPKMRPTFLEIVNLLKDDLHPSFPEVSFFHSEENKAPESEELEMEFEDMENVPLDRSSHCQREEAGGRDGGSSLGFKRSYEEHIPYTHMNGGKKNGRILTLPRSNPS
T13 sequence (Q9P286 whole entry): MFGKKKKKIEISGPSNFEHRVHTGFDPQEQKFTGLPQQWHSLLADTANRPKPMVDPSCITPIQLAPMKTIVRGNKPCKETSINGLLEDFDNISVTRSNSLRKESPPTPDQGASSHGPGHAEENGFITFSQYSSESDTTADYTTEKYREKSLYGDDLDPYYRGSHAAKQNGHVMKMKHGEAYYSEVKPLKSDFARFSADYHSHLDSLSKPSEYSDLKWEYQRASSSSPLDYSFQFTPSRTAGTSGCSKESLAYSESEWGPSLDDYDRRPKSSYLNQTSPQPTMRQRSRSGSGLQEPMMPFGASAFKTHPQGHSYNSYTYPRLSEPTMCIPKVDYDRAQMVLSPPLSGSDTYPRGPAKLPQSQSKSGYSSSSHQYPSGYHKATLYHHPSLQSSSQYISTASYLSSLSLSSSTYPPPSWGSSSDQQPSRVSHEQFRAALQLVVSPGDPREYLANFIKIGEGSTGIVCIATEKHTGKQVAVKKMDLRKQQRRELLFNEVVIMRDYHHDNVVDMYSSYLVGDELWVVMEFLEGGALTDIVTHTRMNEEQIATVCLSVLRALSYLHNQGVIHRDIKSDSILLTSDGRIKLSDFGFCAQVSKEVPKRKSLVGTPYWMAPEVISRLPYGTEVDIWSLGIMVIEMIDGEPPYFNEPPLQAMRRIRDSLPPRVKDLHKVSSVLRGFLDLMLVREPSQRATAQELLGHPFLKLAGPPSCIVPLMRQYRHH
T2 sequence (P46098 24-478): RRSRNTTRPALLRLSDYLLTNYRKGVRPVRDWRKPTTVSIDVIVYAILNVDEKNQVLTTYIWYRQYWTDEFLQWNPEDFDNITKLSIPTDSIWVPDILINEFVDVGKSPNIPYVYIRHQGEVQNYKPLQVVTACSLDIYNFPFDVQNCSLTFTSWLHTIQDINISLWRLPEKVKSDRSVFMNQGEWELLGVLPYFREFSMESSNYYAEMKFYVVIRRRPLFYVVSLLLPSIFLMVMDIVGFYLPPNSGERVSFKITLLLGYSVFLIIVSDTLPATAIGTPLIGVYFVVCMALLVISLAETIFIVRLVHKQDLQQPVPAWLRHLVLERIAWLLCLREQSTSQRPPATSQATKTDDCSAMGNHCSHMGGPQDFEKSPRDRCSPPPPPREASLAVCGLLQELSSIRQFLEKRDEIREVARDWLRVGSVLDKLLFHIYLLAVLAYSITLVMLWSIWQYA
T19 sequence (Q9UHD2 whole entry): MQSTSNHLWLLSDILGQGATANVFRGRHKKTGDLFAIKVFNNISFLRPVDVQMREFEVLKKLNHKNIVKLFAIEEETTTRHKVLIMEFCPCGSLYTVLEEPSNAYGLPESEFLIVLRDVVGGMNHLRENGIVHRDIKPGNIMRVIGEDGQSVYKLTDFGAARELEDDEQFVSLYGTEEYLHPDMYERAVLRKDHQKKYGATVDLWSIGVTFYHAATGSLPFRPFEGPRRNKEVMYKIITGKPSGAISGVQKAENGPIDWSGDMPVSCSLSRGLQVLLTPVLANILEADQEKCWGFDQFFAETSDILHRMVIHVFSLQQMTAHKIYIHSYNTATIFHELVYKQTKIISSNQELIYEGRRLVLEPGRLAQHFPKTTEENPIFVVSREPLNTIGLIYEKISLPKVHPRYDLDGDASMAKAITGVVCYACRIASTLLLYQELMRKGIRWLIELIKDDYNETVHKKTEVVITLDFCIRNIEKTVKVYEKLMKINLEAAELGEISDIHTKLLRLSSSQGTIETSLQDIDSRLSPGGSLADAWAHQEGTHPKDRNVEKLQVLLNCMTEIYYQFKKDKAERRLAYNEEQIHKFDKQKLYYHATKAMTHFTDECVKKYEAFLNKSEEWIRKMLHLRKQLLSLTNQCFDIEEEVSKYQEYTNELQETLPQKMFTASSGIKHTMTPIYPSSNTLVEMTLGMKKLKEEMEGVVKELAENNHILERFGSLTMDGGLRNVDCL
T20 sequence (P43403 whole entry): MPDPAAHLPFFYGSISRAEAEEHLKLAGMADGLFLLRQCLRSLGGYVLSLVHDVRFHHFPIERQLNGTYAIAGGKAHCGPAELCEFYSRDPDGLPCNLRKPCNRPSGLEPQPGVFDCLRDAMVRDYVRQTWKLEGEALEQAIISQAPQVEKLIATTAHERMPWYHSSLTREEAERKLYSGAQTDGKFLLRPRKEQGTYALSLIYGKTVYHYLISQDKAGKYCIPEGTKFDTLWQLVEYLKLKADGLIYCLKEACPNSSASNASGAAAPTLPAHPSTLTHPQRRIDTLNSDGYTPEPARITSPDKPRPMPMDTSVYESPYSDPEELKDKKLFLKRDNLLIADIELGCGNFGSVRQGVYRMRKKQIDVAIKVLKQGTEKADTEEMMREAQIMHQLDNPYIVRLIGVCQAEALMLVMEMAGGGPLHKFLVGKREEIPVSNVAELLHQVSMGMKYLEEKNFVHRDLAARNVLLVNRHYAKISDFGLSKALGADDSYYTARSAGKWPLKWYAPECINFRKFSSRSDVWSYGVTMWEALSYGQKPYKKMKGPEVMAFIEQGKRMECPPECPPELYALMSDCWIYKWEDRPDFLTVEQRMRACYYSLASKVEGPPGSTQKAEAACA
T27 sequence (P49760 whole entry): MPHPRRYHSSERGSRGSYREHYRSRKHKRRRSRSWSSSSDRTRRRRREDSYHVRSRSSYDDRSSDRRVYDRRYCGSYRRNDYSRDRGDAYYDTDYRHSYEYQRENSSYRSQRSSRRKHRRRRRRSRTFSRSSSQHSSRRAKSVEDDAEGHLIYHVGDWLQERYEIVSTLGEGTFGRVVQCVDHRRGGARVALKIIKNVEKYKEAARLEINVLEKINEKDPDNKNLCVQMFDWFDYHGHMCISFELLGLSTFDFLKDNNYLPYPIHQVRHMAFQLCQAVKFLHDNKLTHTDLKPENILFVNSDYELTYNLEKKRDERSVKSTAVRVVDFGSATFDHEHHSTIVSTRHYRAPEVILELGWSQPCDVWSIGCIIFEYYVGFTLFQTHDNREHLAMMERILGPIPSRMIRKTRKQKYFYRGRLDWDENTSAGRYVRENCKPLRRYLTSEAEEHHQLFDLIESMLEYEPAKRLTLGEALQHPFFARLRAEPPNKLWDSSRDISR

With Cn1cc(-c2ccc(-c3cncc(Cl)c3N3CCC4(CCNC4=O)CC3)cc2)cn1 [Compound 74, 8-(3-Chloro-5-(4-(1-methyl-1H-pyrazol-4-yl)phenyl)pyridin-4-yl)-2,8-diazaspiro[4.5]decan-1-one] the Papp at 2 h, 1 μM [1] was 24 ×10⁻⁶ cm/s, the inhibition at 10 µM [2] was 6% and the “% Inhibition of Control Specific Binding” value [3] was 5%. For the same compound, the inhibition at 10 µM [4] was 9%, the remaining activity at 1 µM [5] was 6% and the remaining activity at 1 µM [6] was -16%. It also gave a remaining activity at 1 µM [7] of -3%, a remaining activity at 1 µM [8] of -9% and a remaining activity at 1 µM [9] of -11%. It also gave a remaining activity at 1 µM [10] of -9%, a remaining activity at 1 µM [11] of 13% and an IC50 ([12]; ATP at Km) of over 10 µM. The remaining activity at 1 µM [12] was 10%, the remaining activity at 1 µM [13] was -12% and the remaining activity at 1 µM [14] was 0%. The remaining activity at 1 µM [15] was 4%, the remaining activity at 1 µM [16] was -12% and the remaining activity at 1 µM [17] was 2%. The remaining activity at 1 µM [18] was -22%, the remaining activity at 1 µM [19] was 7% and the remaining activity at 1 µM [20] was -6%. For the same compound, the remaining activity at 1 µM [21] was 4%, the remaining activity at 1 µM [22] was 6% and the remaining activity at 1 µM [23] was -5%. For the same compound, the remaining activity at 1 µM [24] was 0%, the remaining activity at 1 µM [25] was -4% and the remaining activity at 1 µM [26] was -8%. It also gave a remaining activity at 1 µM [27] of -6%, a remaining activity at 1 µM [28] of 5% and a remaining activity at 1 µM [29] of -19%. For the same compound, the remaining activity at 1 µM [30] was -8%, the remaining activity at 1 µM [31] was -6% and the remaining activity at 1 µM [32] was -4%. For the same compound, the IC50 [33] was over 10 µM.

With O=C1NCCC12CCN(c1c(Cl)cncc1-c1ccc(N3CCOCC3)cc1)CC2 [Compound 44, 8-(3-Chloro-5-(4-morpholin-4-ylphenyl)pyridin-4-yl)-2,8-diazaspiro[4.5]decan-1-one] the microsomal CLint at 1 μM [34] was 41 µL/min/mg, the “Caco-2 efflux (efflux ratio, ER)” value [1] was “no efflux” and the Papp at 2 h, 1 μM [1] was 37 ×10⁻⁶ cm/s. For the same compound, the “glutathione adduct in an in vitro reactive metabolite assay” value [35] was “generated a glutathione adduct”, the inhibition at 10 µM [2] was -3% and the “% Inhibition of Control Specific Binding” value [3] was 10%. The inhibition at 10 µM [4] was -3%, the remaining activity at 1 µM [36] was -12% and the remaining activity at 1 µM [7] was 7%. It also gave a remaining activity at 1 µM [8] of -7%, a remaining activity at 1 µM [10] of 4% and a remaining activity at 1 µM [11] of 12%. The remaining activity at 1 µM [12] was 13%, the remaining activity at 1 µM [37] was 31% and the remaining activity at 1 µM [38] was 10%. The remaining activity at 1 µM [13] was 7%, the remaining activity at 1 µM [14] was 17% and the remaining activity at 1 µM [15] was 8%. It also gave a remaining activity at 1 µM [16] of 3%, a remaining activity at 1 µM [19] of 2% and a remaining activity at 1 µM [20] of 4%. The remaining activity at 1 µM [21] was 5%, the remaining activity at 1 µM [22] was 13% and the remaining activity at 1 µM [29] was -10%. For the same compound, the remaining activity at 1 µM [32] was 17%.

Source: PMC4767141, “Discovery of Potent, Orally Bioavailable, Small-Molecule Inhibitors of WNT Signaling from a Cell-Based Pathway Screen” (Journal of Medicinal Chemistry, 2015)
